The target in this experiment is 5α-reductase. Description: 5α-reductase inhibitory activity in vitro. Format: biochemical, rat. As to conditions: male rats' prostate enzyme, [4-C14]-testosterone, NADPH, 60 mins at 37° C., pH 7.4. How it is done: 5α-reductase inhibitory activity in vitro
Inhibitory activity on 5α-reductase in vitro was measured by the following test system.
The test was carried out by making reference to the method of J. Shimazaki et al [See Endocrinical. Japon., 18, 179 (1971)].
Male rats' prostate (4 g) was homogenized with its triple volume of 0.1M HEPES buffer (pH 7.4) including 0.25M cane sugar, and was centrifuged at 3000 r.p.m. for 10 mins.
The precipitate was suspended into the buffer solution described above (10 ml), and the suspension was centrifuged at 3000 r.p.m. for 5 mins. The resulting precipitated was suspended in the buffer solution (3 ml) described above and was used as a sauce of enzyme.
A reaction mixture (total volume 0.1 ml) of [4-C^14 ]-testosterone (1.5 n mol, 1.5×10^5 cpm) NADPH (0.5 μmol) enzyme solution (0.03 ml) described above and several kinds of concentration of the compounds in the present invention was incubated for 60 mins at 37° C. Enzyme reaction was quenched by addition of a mixture (1.0 ml) of diethyl ether, petroleum ether and acetic acid (80:20:1), and the mixture was centrifuged at 3000 r.p.m. for 5 mins. The supernatant (200 μl) was spotted on silica gel thin layer plate. The spot on the plate was developed with a mixture of chloroform, methanol and acetic acid (99:0.8:0.2). Radioactivity of dihydrotestosterone generated on the plate was measured by TLC scanner of radio-autography and inhibitory ratio was calculated.
Compound `Cc1c(OCc2ccccc2)ccc(C(=O)Nc2ccccc2OCCCC(=O)O)c1C` [2(a), 4-[2-(4-benzyloxy-2,3-dimethylbenzoylamino)phenoxy]butanoic acid] came in with a half-inhibitory concentration (IC50) of 2100 nM. Then `CC(C)Cc1ccc(COc2ccc(C(=O)Nc3ccccc3OCCCC(=O)O)c3ccccc23)cc1` [2(aa), 4-[2-[4-[4-isobutylbenzyloxy)naphthalene-1-carbonylamino]phenoxy]butanoic acid], with 520 nM; and `Cc1ccccc1COc1ccc(C(=O)Nc2ccccc2OCCCC(=O)O)c(C)c1C` [2(b), 4-[2-[4-(2-methylbenzyloxy)-2,3-dimethylbenzoylamino]phenoxy]butanoic acid], with 380 nM. Regarding `CC(C)Cc1ccc(COc2ccc(C(=O)Nc3ccccc3SCCCC(=O)O)c3c2CCCC3)cc1` [2(bb), 4-[2-[4-(4-isobutylbenzyloxy)-5,6,7,8-tetrahydronaphthalene-1-carbonylamino]phenylthio]butanoic acid], the IC50 stood at 420 nM. Then `Cc1cccc(COc2ccc(C(=O)Nc3ccccc3OCCCC(=O)O)c(C)c2C)c1` [2(c), 4-[2-[4-(3-methylbenzyloxy)-2,3-dimethylbenzoylamino]phenoxy]butanoic acid], with 1300 nM; and `CCCc1ccc(COc2ccc(C(=O)Nc3ccccc3SCCCC(=O)O)c(C)c2C)cc1` [2(cc), 4-[2-[4-(4-propylbenzyloxy)-2,3-dimethylbenzoylamino)phenylthio]butanoic acid], with 380 nM. Then `Cc1ccc(COc2ccc(C(=O)Nc3ccccc3OCCCC(=O)O)c(C)c2C)cc1` [2(d), 4-[2-[4-(4-methylbenzyloxy)-2,3-dimethylbenzoylamino]phenoxy]butanoic acid], with 980 nM; and `Cc1c(OC(C)c2ccc(CC(C)C)cc2)ccc(C(=O)Nc2ccccc2SCCCC(=O)O)c1C` (centres unmarked) [2(dd), 4-[2-[4-[1-(4-isobutylphenyl)ethoxy]-2,3-dimethylbenzoylamino]phenylthio]butanoic acid], with 120 nM; and `Cc1cccc(C)c1COc1ccc(C(=O)Nc2ccccc2OCCCC(=O)O)c(C)c1C` [2(e), 4-[2-[4-(2,6-dimethylbenzyloxy)-2,3-dimethylbenzoylamino]phenoxy]butanoic acid], with 1400 nM. To `CCc1ccc(COc2ccc(C(=O)Nc3ccccc3OCCCC(=O)O)c(C)c2C)cc1` [2(f), 4-[2-[4-(4-ethybenzyloxy)-2,3-dimethylbenzoylamino]phenoxy]butanoic acid] belongs 270 nM. Compound `CCCc1ccc(COc2ccc(C(=O)Nc3ccccc3OCCCC(=O)O)c(C)c2C)cc1` [2(g), 4-[2-[4-(4-propylbenzyloxy)-2,3-dimethylbenzoylamino]phenoxy]butanoic acid] gave an IC50 of 340 nM. Then `Cc1c(OCc2ccc(C(C)C)cc2)ccc(C(=O)Nc2ccccc2OCCCC(=O)O)c1C` [2(h), 4-[2-[4-(4-isopropylbenzyloxy)-2,3-dimethylbenzoylamino]phenoxy]butanoic acid], with 260 nM; and `Cc1c(OCc2ccc(Cl)cc2)ccc(C(=O)Nc2ccccc2OCCCC(=O)O)c1C` [2(i), 4-[2-[4-(4-chlorobenzyloxy)-2,3-dimethylbenzoylamino]phenoxy]butanoic acid], with 2000 nM; and `Cc1c(OCc2ccc(CC3CCC3)cc2)ccc(C(=O)Nc2ccccc2OCCCC(=O)O)c1C` [2(j), 4-[2-[4-(4-cyclobutylmethylbenzyloxy)-2,3-dimethylbenzoylamino]phenoxy]butanoic], with 2500 nM. In the case of `Cc1c(OCCc2ccccc2)ccc(C(=O)Nc2ccccc2OCCCC(=O)O)c1C` [2(k), 4-[2-[4-(2-phenylethoxy)-2,3-dimethylbenzoylamino]phenoxy]butanoic acid], half-maximal inhibition (IC50) required 2600 nM. Then `Cc1c(OCCCc2ccccc2)ccc(C(=O)Nc2ccccc2OCCCC(=O)O)c1C` [2(l)], with 1000 nM; and `Cc1c(OCCCCc2ccccc2)ccc(C(=O)Nc2ccccc2OCCCC(=O)O)c1C` [2(m), 4-[2-[4-(4-phenylbutoxy)-2,3-dimethylbenzoylamino]phenoxy]butanoic acid], with 750 nM. To `Cc1c(OCCCCCc2ccccc2)ccc(C(=O)Nc2ccccc2OCCCC(=O)O)c1C` [2(n), 4-[2-[4-(5-phenylpentyloxy)-2,3-dimethylbenzoylamino]phenoxy]butanoic acid] belongs 950 nM. Regarding `Cc1c(OC(C)c2ccc(CC(C)C)cc2)ccc(C(=O)Nc2ccccc2OCCCC(=O)O)c1C` (centres unmarked) [2(o), 4-[2-[4-[1-(4-isobutylphenyl)ethoxy]-2,3-dimethylbenzoylamino]phenoxy]butanoic acid], the IC50 is 5 nM. To `CCCc1ccc(C(Oc2ccc(C(=O)Nc3ccccc3OCCCC(=O)O)c(C)c2C)c2ccc(CCC)cc2)cc1` [2(p), 4-[2-[4-[bis(4-propylphenyl)methoxy]-2,3-dimethylbenzoylamino]phenoxy]butanoic acid] belongs 11 nM; to `Cc1c(OC(c2ccccc2)c2ccccc2)ccc(C(=O)Nc2ccccc2OCCCC(=O)O)c1C` [2(q)], 200 nM; to `CC(C)Cc1ccc(COc2ccc(C(=O)Nc3ccccc3OCCCC(=O)O)c(Cl)c2Cl)cc1` [2(x), 4-[2-[4-(4-isobutylbenzyloxy)-2,3-dichlorobenzoylamino]phenoxy]butanoic acid], 2800 nM.

For the compound `CC(C)Cc1ccc(COc2ccc(C(=O)Nc3ccccc3OCCCC(=O)O)c3c2CCC3)cc1` [2(y), 4-[2-(7-(4-isobutylbenzyloxy)indane-4-carbonylamino]phenoxy]butanoic acid], the IC50 turned out to be 410 nM. The compound `CC(C)Cc1ccc(COc2ccc(C(=O)Nc3ccccc3OCCCC(=O)O)c3c2CCCC3)cc1` [2(z), 4-[2-[4-(4-isobutylbenzyloxy)-5,6,7,8-tetrahydronaphthalene-1-carbonylamino]phenoxy]butanoic acid] showed an IC50 of 50 nM. Then `Cc1c(OCc2ccc(CC(C)C)cc2)ccc(C(=O)Nc2ccccc2OCCCC(=O)O)c1C` [Example 2, 4-[2-[4-(4 isobutylbenzyloxy)-2 3-dimethylbenzoylamino]phenoxy]butanoic acid], with 120 nM; and `CCCc1ccc(COc2ccc(C(=O)Nc3ccccc3[S+]([O-])CCCC(=O)O)c(C)c2C)cc1` (centres unmarked) [Example 3, 4-[2-[4-(4-propylbenzyloxy)-2,3-dimethylbenzoylamino]phenylsulfinyl]butanoic acid], with 700 nM.

For the origin of these results see patent publication US4980372A, “Benzoylaminophenoxybutanoic acid derivatives” (Ono Pharmaceutical Co., Ltd., priority 1987, dated 1990).
